Test results published in US8536192B2, “6,7-unsaturated-7-carbamoyl substituted morphinan derivative” (priority 2005, dated 2013).
pKi: −log10 of the molar value. Like-named read-outs stand apart in the source and are kept apart here.

Columns and labels:
[1] = target: opioid μ receptor (Rattus norvegicus (Rat), UniProt P33535); test: Binding assay to opioid μ receptor ([3H]-DAMGO, rat cerebrum membrane)
Experimental: (§1) 1) Method of Preparing Membrane Specimen for Binding Assay
(§2) A rat cerebrum (Slc: SD) which had been stored at −80° C. was used. To a cerebrum which had been weighed was added a 20-fold amount of ice-cooled 10 mM Tris-HCl buffer (pH 7.0), the mixture was homogenized (25000 rpm, 30 seconds) with Histocolon (NITI-ON), and centrifuged at 36600×g for 20 minutes. To the resulting pellet was added 15 ml of the same buffer, and the mixture was treated with Histocolon similarly, and centrifuged. This washing work was performed two times. After centrifugation, to the resulting pellet was added 15 mL of a 50 mM Tris-HCl buffer (pH 7.4), this was treated with Histocolon, and this was finally resuspended in a 10-fold amount of the same buffer, which was used as a crude membrane fraction (Life Sci. 48, 111-116, 1991). The prepared membrane specimen was frozen and stored at −80° C., and at a test, the specimen was rapidly thawed, and diluted to about 900 μg/mL with a 50 mM Tris-HCl buffer (pH 7.4) after the centrifugation and Histocolon treatment, and was used in an experiment. For measuring a protein concentration of the membrane specimen, Micro BCA Protein Assay Kit (PIERCE) was used.
2) Method of μ Receptor Binding Assay and Data Analysis
After washing, the filter was transferred to a mini vial for liquid scintillation counter, 5 mL of a scintillator (Cleasol I) was added, and this was allowed to stand overnight, and the radioactivity was measured for 3 minutes with a liquid scintillation counter Tri-Carb 2200CA (PACKARD).

[2] = tested on: carbon powder transport of inhibitory activity by morphine; test: Mouse carbon powder transport assay (antagonism of morphine-inhibited small intestine transport); format: in vivo; settings: sc, 1 h, test compound 3 mg/kg subcutaneously, 15 minutes before morphine 3 mg/kg
Experimental: 1) Preparation of Test Diet (Carbon Powder)
Using a 10 w/v % arabic gum aqueous solution, a 5 w/v % active carbon solution was prepared, which was used as a test diet.
A ddY line male mouse (5 to 6 weeks old) was used. The mouse was fasted from about 20 or more hours before assay initiation, and water was given ad lib.
The test compound was dissolved in a solvent (DMAA/Solutol/5% meglumine=15/15/70).
Morphine hydrochloride was dissolved in a physiological saline. The test compound, the above solvent and morphine were all administered at a liquid amount of 10 mL/kg.
The test compound 3 mg/kg (test compound administration group) or the solvent (solvent administration group) were subcutaneously administered and, after 15 minutes, amount of 3 mg/kg of morphine was administered to all groups. As a control group, the solvent was subcutaneously administered and, after 15 minutes, a physiological saline was administered.
The test diet 10 mL/kg was orally administered at 15 minutes after administration of morphine. At thirty minutes after administration of the test diet (60 minutes after administration of the test substance), all mice were isolated from esophagus to an ileocecal part near a stomach cardia part. A distance from pyloric part of the stomach to an ileocecal part (full length of small intestine) and a distance until a carbon powder reaching front part (carbon powder movement distance) were measured. The antagonistic activity on the carbon powder transport of inhibitory activity by morphine was calculated as MPE (%) using the following equation. Transport rate (%)=(carbon powder movement distance)/full length of small intestine (cm))×100 M.P.E. (%)={(small intestine transport rate (%) of each individual of test compound administration group−average small intestine transport rate (%) of solvent administration group)/(average small intestine transport rate (%) of control group−average small intestine transport rate (%) of solvent administration group)}×100

[3] = target: opioid δ receptor (Rattus norvegicus (Rat), UniProt P33533); test: Binding assay of opioid δ receptor ([3H]-DADLE, rat cerebrum membrane)
Experimental: as §1
as §2, with “7.0), and” for “7.0),”, “7.4), and” for “7.4),”, “and” for “and this was”, “an assay,” for “a test,”
2) Method of δ Receptor Binding Assay and Data Analysis
Into a tube was placed 480 μl of a rat cerebrum membrane fraction to which 100 mM choline chloride, 3 mM MnCl2 and 100 nM DAMGO had been added, and this was incubated at 25° C. for 2 hours. […] After washing, the filter was transferred to a mini vial for liquid scintillation counter, 5 mL of a scintillator (Cleasol I) was added, this was allowed to stand overnight, and the radioactivity was measured for 3 minutes with a liquid scintillation counter Tri-Carb 2200CA (PACKARD).

O=C(Nc1ccc([N+](=O)[O-])cn1)C1=C(O)[C@@H]2Oc3c(O)ccc4c3[C@@]23CCN(CC2CC2)[C@H](C4)[C@]3(O)C1 [Compound I-208] showed a pKi [1] of 8.23, a percent antagonism of morphine-inhibited transport (M.P.E.) at 3 mg/kg [2] of 81.2% and a pKi [3] of 7.88.
COC(=O)C1(NC(=O)C2=C(O)[C@@H]3Oc4c(O)ccc5c4[C@@]34CCN(CC3CC3)[C@H](C5)[C@]4(O)C2)CCCC1 [Compound I-133] gave a pKi ([1]; [3H]-DAMGO, rat cerebrum membrane fraction, read-out: Ki) of 8.30, a percent antagonism of morphine-inhibited transport (M.P.E.) at 3 mg/kg [2] of 107% and a pKi ([3]; [3H]-DADLE, rat cerebrum membrane fraction, read-out: Ki) of 8.01.
